Patent US8283291B2, “Herbicidal composition” (Kumiai Chemical Industry Co., Ltd., priority 2006, dated 2012)

Assays:
Assay in all cases: Test on herbicidal effects against weeds and phytotoxicity by foliage treatment in upland field
Conditions in all cases: 25 gai/ha, 21st day
[1] = system: shattercane (SORVU); format: in vivo, Sorghum vulgare
Method: (§1) In a plastic pot of 11 cm in length×11 cm in width×11 cm in depth, the upland soil was filled, and seeds of corn (ZEAMX), soybean (GLXMA), greenfoxtail (SETVI), shattercane (SORVU), redroot pigweed (AMARE), Ipomoea lacunosa L. (IPOLA) and velvetleaf (ABUTH) were sown and covered with soil.
(§2) Then, cultivation was carried out in a greenhouse for 10 days. Then, a wettable powder prepared in accordance with Formulation Example 1 was weighed so that active ingredients would be the prescribed amounts, diluted with water and uniformly applied on the soil surface by means of a small size spray at a rate of 500 liter per 1 hectare. Thereafter, cultivation was carried out in a greenhouse, and on the 21st day after the treatment, the herbicidal effects and phytotoxicity were examined in accordance with the standards as identified in Table 15.

[2] = system: velvetleaf (ABUTH); format: in vivo, Abutilon theophrasti
Method: as §1, §2

[3] = system: greenfoxtail (SETVI); format: in vivo, Setaria viridis
Method: as §1, §2

[4] = system: Ipomoea lacunosa L. (IPOLA); format: in vivo
Method: as §1, §2

[5] = system: redroot pigweed (AMARE); format: in vivo, Amaranthus retroflexus L.
Method: as §1, §2

[6] = system: soybean (GLXMA); format: in vivo
Method: as §1
as §2, with “diluted with water and uniformly applied on the soil surface by means of a small size” left out

[7] = system: corn (ZEAMX); format: in vivo
Method: as §1
as §2, with “diluted with water and uniformly applied on the soil surface by means of a small size” left out

Structure (SMILES): COCc1cccc(C(O)c2nc(OC)cc(OC)n2)c1NS(=O)(=O)C(F)F (stereo not shown) [Pyrimisulfan]
- herbicidal effect SORVU [1]: 8 (Herbicidal effect or phytotoxicity of at least 80% and less than 90%)
- herbicidal effect ABUTH [2]: 10 (Herbicidal effect or phytotoxicity of 100%)
- herbicidal effect SETVI [3]: 6 (Herbicidal effect or phytotoxicity of at least 60% and less than 70%)
- herbicidal effect IPOLA [4]: 9 (Herbicidal effect or phytotoxicity of at least 90% and less than 100%)
- herbicidal effect AMARE [5]: 10 (Herbicidal effect or phytotoxicity of 100%)
- phytotoxicity GLXMA [6]: 2 (Herbicidal effect or phytotoxicity of at least 20% and less than 30%)
- phytotoxicity ZEAMX [7]: 2 (Herbicidal effect or phytotoxicity of at least 20% and less than 30%)
